Reference: patent publication US6878711B2, “Indole derivatives as PDE5-inhibitors” (Lilly Icos LLC, priority 2000, dated 2005)

Key:
human recombinant PDE5 = human recombinant PDE5 (Homo sapiens, UniProt O76074); test: Inhibitory effect on cGMP-PDE (one-step assay, 8-[H3]-cGMP)
PDE5 (bovine aorta) = molecular target: T1, PDE5 (bovine aorta) (Bos taurus, UniProt Q28156); test: Inhibitory effect on cGMP-PDE, enzyme from bovine aorta; type: biochemical; conditions: vs. bovine aorta
T1 construct: from tissue; host or cells: bovine aorta
Excerpt: Biophys. Acta, 384, 430 (1975).

| melting point [°C] | IC50 (human recombinant PDE5) [nM] | Structure (SMILES) | other results |
| --- | --- | --- | --- |
| 158 to 162 |  | CN1CC(=S)N2[C@H](c3ccc4c(c3)OCO4)c3[nH]c4ccccc4c3C[C@@H]2C1=S |  |
|  | 54 | CN1CCN2[C@H](c3ccc4c(c3)OCO4)c3[nH]c4ccccc4c3C[C@@H]2C1=O [Example 1, (6R,12aR)-6-Benzo[1,3]dioxol-5-yl-2-methyl-3,4,6,7,12,12a-hexahydro-2H-pyrazino[1′,2′:1,6]pyrido[3,4-b]indole-1-one] |  |
|  | 575 | CN1CCN2[C@@H](c3ccc4c(c3)OCO4)c3[nH]c4ccccc4c3C[C@@H]2C1=O [Example 2, (6S,12aR)-6-Benzo[1,3]dioxol-5-yl-2-methyl-3,4,6,7,12,12a-hexahydro-2H-pyrazino-[1′2′:1,6]pyrido[3,4-b]indol-1-one] |  |
|  |  | CN1CCN2[C@@H](c3ccc4c(c3)OCO4)c3[nH]c4ccccc4c3C[C@H]2C1=O [Example 3] | IC50 (PDE5 (bovine aorta)): 100 nM |
|  | 2.3 | O=C1CNC[C@H]2Cc3c([nH]c4ccccc34)[C@@H](c3ccc4c(c3)OCO4)N12 [Example 4] |  |
| 177 to 182 |  | CN1CC(=S)N2[C@H](c3ccc4c(c3)OCO4)c3[nH]c4ccccc4c3C[C@H]2C1=S [Example 6, (6R,12aS)-6-Benzo[1,3]dioxol-5-yl-2-methyl 2,3,6,7,12,12a-hexahydropyrazino[1′,2′:1,6]pyrido[3,4-b]indole-1,4-dithione] |  |
